Measurements reported in patent US20070207544A1, “STROMA-FREE, SERUM-FREE, AND CHEMICALLY DEFINED MEDIUM AND METHOD FOR EX VIVO MONONUCLEAR CELL EXPANSION USING THE SAME” (FOOD INDUSTRY RESEARCH & DEVELOPMENT INSTITUTE, priority 2005, published 2007).

Assays:
[1] = system: white blood cells (WBCs); test: Ex vivo expansion of UCB mononuclear cells: WBC growth (cell density); type: cell-based, human; conditions: for effect of serum substitute on WBC growth: sign of coefficient in Eq. (2), IMDM + seven cytokines; for effect of cytokine on WBC growth: sign of coefficient in Eq. (4), IMDM + BIT
Description: (§1) The term UCB was harvested with a standard 250-ml blood bag (Terumo, Shibuya-ku, Tokyo, Japan) with the informed consent and processed within 24 hrs. Buffy coat cells were obtained from UCB by centrifugation (700×g, 20 mins), and were diluted with an equal volume of wash buffer (Dulbecco's phosphate buffered saline, D-PBS, containing 2 mM EDTA, Sigma, St. Louis, Mo.). Then the cells were layered onto Ficoll-Paque solution (ρ=1.077 g/ml, Amersham Biosciences, Uppsala, Sweden) and centrifuged to deplete red blood cells, platelets and plasma (700×g, 40 mins). MNCs were collected, and washed with D-PBS twice. Recovery rate, viability, percentage of CD34^+ fraction, colony-forming cells (CFCs), and long-term culture-initiating cells (LTC-ICs) were determined as day 0 for control. For expansion, MNC were seeded at a concentration of 5×10^5 cells/ml in 24-well plates with variable serum substitutes and cytokines according to experiment design (all experiments were repeated at least six times).
(§2) Two-level factorial design followed the method of steepest ascent was carried out to find the optimal concentrations of serum substitutes and cytokines for CD34^+ cells expansion. Fractional and full factorial design data were regressed by SPSS software to obtain the first order polynomial. Its statistic significance was determined by an F-test and the significance of the regression coefficients was analyzed by a t-test. The polynomial takes the form of White blood cells (WBCs)/ml or CD34^+ cells/ml=α0+αixi (1)
(§3) As has been extensively reviewed [Sandstrom C E, et al. Biotechnol Bioeng. 1994; 43:706-733; Mobest D, et al. Biotechnol Bioeng. 1998; 60:341-347; Bruyn C D, et al. Cytotherapy. 2003; 5:153-160] and based on the inventors' previous experience [Lebkowski J S, et al. Stem Cells. 1995; 13:607-612; Audet J, et al. Biotechnol Bioeng. 2002; 80:393-404; Yao C L, et al. Enzyme Micro Technol. 2003; 33:343-352], four kinds of compounds that are frequently used as serum substitutes were selected—bovine serum albumin (BSA), insulin, transferring (TF), and 2-mercaptoethanol (2-ME). The 2^4 full factorial design was adopted to determine which serum substitutes were required for CD34^+ cell expansion in the MNC culture system. The 2^4 full factorial design could efficiently test four compounds with 16 trials and provide completely degrees of freedom to obtain the coefficients. […] 2003; 33:343-352]; the initial cell density was 5×10^5 MNCs/ml and the cells were analyzed after 7-day culture.
(§4) The 2^10-6 fractional factorial design (16 runs simultaneously) was adopted to identify which cytokines could help CD34^+ cell expansion in the MNC culture system. This design could efficiently test ten compounds with 16 trials and provide sufficient degrees of freedom to obtain the coefficients.

[2] = system: CD34^+ cells; test: Ex vivo expansion of UCB mononuclear cells: CD34^+ cell growth by flow cytometry; type: cell-based, human; conditions: for effect of serum substitute on CD34^+ cell growth: sign of coefficient in Eq. (3), IMDM + seven cytokines
Description: as §1, §2, §3, §4

| Compound | effect of serum substitute on WBC growth [1] | effect of serum substitute on CD34^+ cell growth [2] | effect of cytokine on WBC growth [1] | effect of cytokine on CD34^+ cell growth ([2]; sign of coefficient in Eq. (5), IMDM + BIT) |
| --- | --- | --- | --- | --- |
| OCCS [2-ME, 2-mercaptoethanol, reference compound] | inhibit | inhibit | – | – |
| HGF: recombinant human hepatocyte growth factor; x10 in Eq. (4), (5) | – | – | inhibit | – |
| IL-6: recombinant human interleukin-6; x5 in Eq. (4), (5) | – | – | inhibit | positive effect |
| TF: transferrin, serum substitute; x3 in Eq. (2), (3) | enhance | enhance | – | – |
| insulin: insulin, serum substitute; x2 in Eq. (2), (3) | enhance | enhance | – | – |
